# Read-outs that look alike come from different tables or passages of the source.
# Experiments:
# ERα = molecular target: T1, ERα (Homo sapiens, UniProt P03372); experiment: Estrogen receptor competition binding assay (SPA, [3H]Estradiol), ERα
# T1 construct: GST (N); made in house; host or cells: E. coli BL21(DE3)pLysS
# T1 sequence (P03372 311-547 limits assumed): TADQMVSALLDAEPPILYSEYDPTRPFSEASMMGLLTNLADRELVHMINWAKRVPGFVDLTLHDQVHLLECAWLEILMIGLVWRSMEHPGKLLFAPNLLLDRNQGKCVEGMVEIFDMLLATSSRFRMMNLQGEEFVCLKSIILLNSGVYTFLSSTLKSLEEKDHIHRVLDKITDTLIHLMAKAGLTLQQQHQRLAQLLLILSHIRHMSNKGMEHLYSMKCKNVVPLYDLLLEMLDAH
# Experimental: (§1) The ligand binding domain of both ERα and ERβ were subcloned into pGEX-2T vector which had been modified to contain KpnI and BamHI restriction sites in the multiple cloning region. GST-hERα and GST-hERβ proteins were made by transforming BL21(DE3)pLYS S competent cells with the appropriate expression plasmid. […] The cells were collected by centrifugation and resuspended in lysis buffer (50 mM Tris pH 7.9; 250 mM KCl; 1% Triton X-100; 10 mM DTT; 1 mM PMSF). The lysate was then placed on dry ice until completely frozen. […] The supernatant was retained and glycerol was added to a final concentration of 10%. The protein content of the supernatant was quantitated using the BioRad Protein Assay Reagent The protein was then stored at −80° C. until used in the binding assay.
# (§2) Polylysine coated Yttrium Silicate SPA beads (Amersham #RPNQ 0010) are resuspended in assay buffer [10 mM potassium phosphate buffer pH 7.0 containing 2 mM EDTA, 50 mM NaCl, 1 mM DTT, 2 mM CHAPS, 10% glycerol] to a concentration of 1 g/60 ml. […] [2, 4, 6, 7, 16, 17-3H(N)]-Estradiol is added as a 30 ul aliquot to give a final assay concentration of 1 nM. […] The plates are shaken vigorously for two hours then counted on a Packard TopCount using the protocol for counting tritium yttrium silicate SPA beads. Data analysis was done by standard methods. % Bound was calculated for each concentration of each test compound using the equation % Bound=100*((Test−NS)/(T−NS)). % Bound was plotted vs concentration and curve fitting was accomplished using non-linear regression.
# ERβ = molecular target: T2, ERβ (Homo sapiens, UniProt Q92731); experiment: Estrogen receptor competition binding assay (SPA, [3H]Estradiol), ERβ
# T2 construct: GST (N); made in house; host or cells: E. coli BL21(DE3)pLysS
# Experimental: as §1, §2
# [1] = competition binding assay, GST-hERα ligand binding domain, 1 nM [3H]Estradiol, (n) = number of determinations, read-out: Avg. ER α pKi (n) (converted)
# T2 sequence (Q92731 264-498 limits assumed): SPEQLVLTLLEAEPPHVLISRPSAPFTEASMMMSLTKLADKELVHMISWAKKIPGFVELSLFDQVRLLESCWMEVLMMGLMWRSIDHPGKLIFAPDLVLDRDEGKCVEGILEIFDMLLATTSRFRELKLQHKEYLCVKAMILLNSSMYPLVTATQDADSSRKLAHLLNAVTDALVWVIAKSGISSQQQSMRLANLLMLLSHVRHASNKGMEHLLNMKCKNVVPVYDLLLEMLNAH
SMILES,Ki (ERα; [1]) [nM],Ki (ERβ) [nM],Ki (ERα) [nM]
"CN(CCCc1ccc(Cl)cc1)c1nc(NCCc2ccc(O)cc2)nc(N2CCNCC2)n1 [Example 1, 4-(2-{[4-[[3-(4-chlorophenyl)propyl](methyl)amino]-6-(1-piperazinyl)-1,3,5-triazin-2-yl]amino}ethyl)phenol]",339,10.5,
"COc1cccc(C(=O)N2CCN(c3nc(NCCc4ccc(O)cc4)nc(N(C)CCCc4ccc(Cl)cc4)n3)CC2)c1 [Example 3, 4-[2-({4-[[3-(4-chlorophenyl)propyl](methyl)amino]-6-[4-(3-methoxybenzoyl)-1-piperazinyl]-1,3,5-triazin-2-yl}amino)ethyl]phenol]",1780,95.5,
"CN(CCCc1ccc(Cl)cc1)c1nc(NCCc2ccc(O)cc2)nc(N2CCN(C(=O)c3ccccn3)CC2)n1 [Example 4, 4-[2-({4-[[3-(4-chlorophenyl)propyl](methyl)amino]-6-[4-(2-pyridinylcarbonyl)-1-piperazinyl]-1,3,5-triazin-2-yl}amino)ethyl]phenol]",4370,155,
"CN(CCCc1ccc(Cl)cc1)c1nc(NCCc2ccc(O)cc2)nc(N2CCN(Cc3ccccn3)CC2)n1 [Example 5, 4-[2-({4-[[3-(4-chlorophenyl)propyl](methyl)amino]-6-[4-(2-pyridinylmethyl)-1-piperazinyl]-1,3,5-triazin-2-yl}amino)ethyl]phenol]",,38,
"CN(CCCc1ccc(Cl)cc1)c1nc(NCCc2ccc(O)cc2)nc(N2CCN(Cc3cccnc3)CC2)n1 [Example 6, 4-[2-({4-[[3-(4-chlorophenyl)propyl](methyl)amino]-6-[4-(3-pyridinylmethyl)-1-piperazinyl]-1,3,5-triazin-2-yl}amino)ethyl]phenol]",,31.6,
"Cc1nc(CN2CCN(c3nc(NCCc4ccc(O)cc4)nc(N(C)CCCc4ccc(Cl)cc4)n3)CC2)cs1 [Example 7, 4-{2-[(4-[[3-(4-chlorophenyl)propyl](methyl)amino]-6-{4-[(2-methyl-1,3-thiazol-4-yl)methyl]-1-piperazinyl}-1,3,5-triazin-2-yl)amino]ethyl}phenol]",,18.6,
"CN(CCCc1ccc(Cl)cc1)c1nc(NCCc2ccc(O)cc2)nc(N2CCN(/C(=C/C(=O)c3ccccc3)C(F)(F)F)CC2)n1 [Example 8, (2E)-3-[4-(4-[[3-(4-chlorophenyl)propyl](methyl)amino]-6-{[2-(4-hydroxyphenyl)ethyl]amino}-1,3,5-triazin-2-yl)-1-piperazinyl]-4,4,4-trifluoro-1-phenyl-2-buten-1-one]",1580,83.2,
"CN(C)C(=O)CCN1CCN(c2nc(NCCc3ccc(O)cc3)nc(N(C)CCCc3ccc(Cl)cc3)n2)CC1 [Example 9, 3-[4-(4-[[3-(4-chlorophenyl)propyl](methyl)amino]-6-{[2-(4-hydroxyphenyl)ethyl]amino}-1,3,5-triazin-2-yl)-1-piperazinyl]-N,N-dimethylpropanamide]",355,20,
"CN1CCN(c2nc(NC3CCc4cc(O)ccc4C3)nc(SCCCc3ccccc3)n2)CC1 (stereo not shown) [Example 10, 6-({4-(4-methyl-1-piperazinyl)-6-[(3-phenylpropyl)sulfanyl]-1,3,5-triazin-2-yl}amino)-5,6,7,8-tetrahydro-2-naphthalenol]",398,63.1,
"C=CCN1CCN(c2nc(NCCc3ccc(O)cc3)nc(N(C)CCCc3ccc(Cl)cc3)n2)CC1 [Example 12, 4-[2-({4-(4-ally-1-piperazinyl)-6-[[3-(4-chlorophenyl)propy](methyl)amino]-1,3,5-triazin-2-yl}amino)ethyl]phenol]",,22.9,
"CN(CCCc1ccc(Cl)cc1)c1nc(NCCc2ccc(O)cc2)nc(N2CCN(C/C=C/c3ccccc3)CC2)n1 [Example 13, 4-{2-[(4-[[3-(4-chlorophenyl)propyl](methyl)amino]-6-{4-[(2E)-3-phenyl-2-propenyl]-1-piperazinyl}-1,3,5-triazin-2-yl)amino]ethyl]phenol]",141,10,
"CN(CCCc1ccc(Cl)cc1)c1nc(N(C)CCc2ccc(O)cc2)nc(N2CCNCC2)n1 [Example 14, 4-{2-[[4-[[3-(4-chlorophenyl)propyl](methyl)amino]-6-(1-piperazinyl)-1,3,5-triazin-2-yl](methyl)amino]ethy}phenol]",562,26.3,
"CN1CCN(c2nc(N(C)CCCc3ccc(Cl)cc3)nc(N(C)CCc3ccc(O)cc3)n2)CC1 [Example 15, 4-(2-{[4-[[3-(4-chlorophenyl)propyl](methyl)amino]-6-(4-methyl-1-piperazinyl)-1,3,5-triazin-2-yl](methyl)amino}ethyl)phenol]",380,13.2,
"C[C@@H]1CN(c2nc(N(C)CCCc3ccc(Cl)cc3)nc(N(C)CCc3ccc(O)cc3)n2)C[C@H](C)N1 [Example 16, 4-(2-{[4-[[3-(4-chlorophenyl)propyl](methyl)amino]-6-(3,5-cis-dimethyl-1-piperazinyl)-1,3,5-triazin-2-yl](methyl)amino}ethyl)phenol]",229,11,
CN(CCCc1ccc(Cl)cc1)c1nc(N(C)CCc2ccc(O)cc2)nc(N2CCN(CCO)CC2)n1 [Example 17],603,28.8,
"CN(CCCc1ccc(F)cc1)c1nc(NCCc2ccc(O)cc2)nc(N2CCNCC2)n1 [Example 18, 4-(2-{[4-[[3-(4-fluorophenyl)propyl](methyl)amino]-6-(1-piperazinyl)-1,3,5-triazin-2-yl]amino}ethyl)phenol]",372,15.8,
"CN(CCCc1ccc(F)cc1)c1nc(N(C)CCc2ccc(O)cc2)nc(N2CCNCC2)n1 [Example 19, 4-(2-{[4-[[3-(4-fluorophenyl)propyl](methyl)amino]-6-(1-piperazinyl)-1,3,5-triazin-2-yl]methylamino}ethyl)phenol]",550,24.5,
"CN1CCN(c2nc(N(C)CCCc3ccc(F)cc3)nc(N(C)CCc3ccc(O)cc3)n2)CC1 [Example 20, 4-(2-{[4-[[3-(4-fluorophenyl)propyl](methyl)amino]-6-(4-methyl-1-piperazinyl)-1,3,5-triazin-2-yl]methylamino}ethyl)phenol]",562,23.4,
"CN(CCCc1ccc(F)c(F)c1)c1nc(N(C)CCc2ccc(O)cc2)nc(N2CCNCC2)n1 [Example 21, 4-(2-{[4-[[3-(3,4-difluorophenyl)propyl](methyl)amino]-6-(1-piperazinyl)-1,3,5-triazin-2-yl]methylamino}ethyl)phenol]",214,23.4,
"CN(CCCc1ccc(C(F)(F)F)cc1)c1nc(N(C)CCc2ccc(O)cc2)nc(N2CCNCC2)n1 [Example 22, 4-(2-{methyl[4-(methyl{3-[4-(trifluoromethyl)phenyl]propyl}amino)-6-(1-piperazinyl)-1,3,5-triazin-2-yl]amino}ethyl)phenol]",550,85.1,
"CN(CCCc1ccc(Cl)cc1Cl)c1nc(N(C)CCc2ccc(O)cc2)nc(N2CCNCC2)n1 [Example 23, 4-(2-{[4-[[3-(2,4-dichlorophenyl)propyl](methyl)amino]-6-(1-piperazinyl)-1,3,5-triazin-2-yl]methylamino}ethyl)phenol]",501,33.1,
"CN(CCCc1ccc(Cl)cc1)c1nc(NCCc2ccc(O)cc2)nc(N2CCN(CCO)CC2)n1 [Example 24, 4-[2-({4-[[3-(4-chlorophenyl)propyl](methyl)amino]-6-[4-(2-hydroxyethyl)-1-piperazinyl]-1,3,5-triazin-2-yl}amino)ethyl]phenol]",,14.8,339

# — patent publication US6943162B2, “Piperazinyltriazines as estrogen receptor modulators” (SmithKline Beecham Corporation, priority 2001, dated 2005)
